Experiments:
UT-B [1] = biological target: T1, UT-B (Homo sapiens, UniProt Q13336); experiment: erythrocyte osmotic lysis assay, human erythrocytes; assay type: cell-based; details: mean ± s.e.m., n = 3
T1 construct: using erythrocytes, which originally express UT-B; endogenous in cells; host or cells: human erythrocytes (vein blood)
T1 sequence (Q13336 1-389): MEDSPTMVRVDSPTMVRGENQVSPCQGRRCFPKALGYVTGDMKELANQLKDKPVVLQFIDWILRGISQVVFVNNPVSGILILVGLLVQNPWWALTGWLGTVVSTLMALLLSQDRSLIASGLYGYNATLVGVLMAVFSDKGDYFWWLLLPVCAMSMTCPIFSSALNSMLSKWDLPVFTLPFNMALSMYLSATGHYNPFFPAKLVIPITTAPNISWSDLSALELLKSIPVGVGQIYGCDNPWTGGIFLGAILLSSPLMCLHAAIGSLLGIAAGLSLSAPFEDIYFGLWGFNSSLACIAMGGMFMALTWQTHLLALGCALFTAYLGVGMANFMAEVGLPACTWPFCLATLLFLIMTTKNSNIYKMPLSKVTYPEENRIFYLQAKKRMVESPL
Description: (§1) Vein blood was collected from humans, SD rats, wild-type mice or UT-B-null mice as described previously.
(§2) High-throughput screening assay was performed for identification of UT-B inhibitors using erythrocytes, which originally express UT-B as described previously. Erythrocytes were diluted to a hematocrit value of 2% in hyperosmolar PBS containing 1.25 M acetamide and 5 mM glucose. Erythrocyte suspensions were preserved at room temperature for 2 h by periodic pipette mixture. Then, 99 μl erythrocyte suspension from a reservoir was added to each well of a 96-well round-bottom microplate, to which test compounds were added (1 μl, 10 μM final compound concentration, 1% final DMSO concentration). After 6 min of incubation, 20 μl of the erythrocyte suspension was added rapidly to each well of a 96-well black-walled plate containing 180 μl isomolar buffer (PBS containing 1% DMSO) in each well. Erythrocyte lysis was quantified from a single time point measure of absorbance at 710 nm wavelength with a plate reader (BioTek)[27].
(§3) The percentage of erythrocyte lysis in each test well was calculated using control values from the same plate as: % lysis = 100%. (Aneg-Atest)/(Aneg-Apos), where Atest is the absorbance value from a test well. Nonspecific UT-B inhibitor phloretin (Sigma-Aldrich, 700 μM final concentration) was added as an additional positive control.

UT-B [2] = biological target: T2, UT-B (Rattus norvegicus, UniProt P97689); experiment: erythrocyte osmotic lysis assay, rat erythrocytes; assay type: cell-based; details: mean ± s.e.m., n = 3
T2 construct: using erythrocytes, which originally express UT-B; endogenous in cells; host or cells: SD rat erythrocytes (vein blood)
T2 sequence (P97689 1-384): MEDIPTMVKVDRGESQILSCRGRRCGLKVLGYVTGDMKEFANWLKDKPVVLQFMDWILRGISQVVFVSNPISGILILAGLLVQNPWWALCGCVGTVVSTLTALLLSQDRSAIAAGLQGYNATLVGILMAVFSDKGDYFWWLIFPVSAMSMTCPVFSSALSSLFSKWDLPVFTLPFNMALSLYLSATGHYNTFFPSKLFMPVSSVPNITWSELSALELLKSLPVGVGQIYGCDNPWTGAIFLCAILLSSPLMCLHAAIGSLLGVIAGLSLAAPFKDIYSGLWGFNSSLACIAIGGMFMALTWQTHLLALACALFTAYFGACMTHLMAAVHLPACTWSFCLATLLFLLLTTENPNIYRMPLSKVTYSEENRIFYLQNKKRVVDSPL
Description: as §1, §2, §3

UT-B [3] = biological target: T3, UT-B (Mus musculus, UniProt Q8VHL0); experiment: erythrocyte osmotic lysis assay, mouse erythrocytes; assay type: cell-based; details: mean ± s.e.m., n = 3
T3 construct: using erythrocytes, which originally express UT-B; endogenous in cells; host or cells: wild-type mouse erythrocytes (vein blood)
T3 sequence (Q8VHL0 1-384): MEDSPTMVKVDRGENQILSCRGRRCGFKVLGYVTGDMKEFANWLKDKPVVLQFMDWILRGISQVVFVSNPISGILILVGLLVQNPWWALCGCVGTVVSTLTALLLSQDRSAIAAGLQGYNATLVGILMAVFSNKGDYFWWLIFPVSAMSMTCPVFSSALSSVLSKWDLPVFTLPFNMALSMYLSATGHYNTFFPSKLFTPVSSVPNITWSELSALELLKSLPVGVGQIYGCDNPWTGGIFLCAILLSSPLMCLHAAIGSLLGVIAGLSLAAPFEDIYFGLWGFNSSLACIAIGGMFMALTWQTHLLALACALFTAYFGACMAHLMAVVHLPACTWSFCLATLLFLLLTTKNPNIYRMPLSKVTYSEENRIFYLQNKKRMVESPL
Description: as §1, §2, §3

[4] = parameters: method as in PMID 23486518; details: cited from earlier work
UT-B [5] = system: UT-B; parameters: method as in PMID 23486518; details: rabbit; cited from earlier work
UT-B [6] = biological target: T1, UT-B; parameters: method as in PMID 23486518; details: cited from earlier work
UT-B [7] = biological target: UT-B; parameters: method as in Ren et al., under review; details: pIC50 = -log(IC50) + 6; analogues of PU21; ref Ren et al., under review; cited from earlier work
UT-B [8] = biological target: T3, UT-B; parameters: method as in PMID 23486518; details: cited from earlier work
UT-B [9] = biological target: T2, UT-B; parameters: method as in PMID 23486518; details: cited from earlier work

Row | SMILES | IC50 (UT-B [1]) [µM] | IC50 (UT-B [2]) [µM] | IC50 (UT-B [3]) [µM] | diuresis activity in vivo [4] | UT-B inhibition activity in vitro (UT-B [5]) | UT-B inhibition activity in vitro (UT-B [6]) | pIC50 (UT-B [7]) | UT-B inhibition activity in vitro (UT-B [8]) | UT-B inhibition activity in vitro (UT-B [9])
1 | COc1ccc2nc3sc(C(C)=O)c(N)c3cc2c1 [PU21, 1-(3-amino-6-methoxythieno[2,3-b]quinolin-2-yl)ethanone] | 3.78 ± 0.48 | 2.62 ± 0.12 | 4.81 ± 0.4 | – | – | – | – | – | –
2 | CC(=O)c1sc2nc3ccc(C)cc3cc2c1N [PU-14] | – | – | – | pharmacological diuresis activity | potential inhibition activity | potential inhibition activity | 5.454 | potential inhibition activity | potential inhibition activity

Further lines, with some results ahead:

Row | IC50 (UT-B [1]) [µM] | IC50 (UT-B [2]) [µM] | IC50 (UT-B [3]) [µM] | SMILES | diuresis activity in vivo [4] | UT-B inhibition activity in vitro (UT-B [5]) | UT-B inhibition activity in vitro (UT-B [6]) | pIC50 (UT-B [7]) | UT-B inhibition activity in vitro (UT-B [8]) | UT-B inhibition activity in vitro (UT-B [9])
3 | 0.2 ± 0.03 | > 10 | > 10 | CCN(Cc1ccccc1)[C@H](c1cc2c(C)cc(C)cc2[nH]c1=O)c1nnnn1C[C@@H]1CCCO1 [PU168, 3-((R)-(benzyl(ethyl)amino)(1-(((S)-tetrahydrofuran-2-yl)methyl)-1H-tetrazol-5-yl)methyl)-5,7-dimethylquinolin-2(1H)-one] | – | – | – | – | – | –
4 | 5.63 ± 0.82 | 3.18 ± 0.24 | 4.13 ± 0.33 | Cc1nc2ccc(NC(=O)c3ccco3)cc2c(=O)n1Cc1ccc(Cl)cc1 [PU468, N-(3-(4-chlorobenzyl)-2-methyl-4-oxo-3,4-dihydroquinazolin-6-yl)furan-2-carboxamide] | – | – | – | – | – | –
5 | 0.28 ± 0.01 | > 10 | > 10 | Cn1c(=O)c2c(nc(SCC(=O)Nc3cccc(O)c3)n2Cc2ccccc2)n(C)c1=O [PU474, 2-((7-benzyl-1,3-dimethyl-2,6-dioxo-2,3,6,7-tetrahydro-1H-purin-8-yl)thio)-N-(3-hydroxyphenyl)acetamide] | – | – | – | – | – | –

From article PMC5376056, “Developing Hypothetical Inhibition Mechanism of Novel Urea Transporter B Inhibitor” (Scientific Reports, 2014)
